# Experimental data published in US9139502B2, “Use of an urushiol compound in preparation of pharmaceutical compositions for inhibiting Smad3 phosphorylation” (Southern Hospital, Southern Medical University, priority 2013, dated 2015).
# What was measured:
# fibronectin = assay: Real-time PCR of TGF-β1-induced fibronectin mRNA in vitro; type: cell-based, rat; conditions: NRK 52E and NRK 49F cells, GQ-5 0.1-2.5 μM pre-treated 1 h, TGF-β1 10 ng/ml 36 h
# Experimental: (§1) NRK52E and NRK49F cells were cultured in DMEM-Ham's medium supplemented with 10% fetal bovine serum. The cells reached at approximately 50% confluence were used for in vitro experiments. Cells were serum-starved for 12 h, and randomized into 6 groups: (1) Controls; (2) GQ-5 only; (3) TGF-β1 only; (4) TGF-β1+GQ-5 0.1 μM; (5) TGF-β1+GQ-5 0.5 μM; (6) TGF-β1+GQ-5 2.5 μM
# (§2) (2) GQ-5 only: pre-treated with GQ-5 (2.5 μM) for 1 h, followed with DMEM for 36 h
# (§3) (3) TGF-β1 only: pre-treated with DMSO for 1 h, followed with TGF-β1 (10 ng/ml) for 36 h
# (§4) (4) TGF-β1+GQ-5 0.1 μM: pre-treated with GQ-5 (0.1 μM) for 1 h, followed with TGF-β1 (10 ng/ml) for 36 h
# (§5) (5) TGF-β1+GQ-5 0.5 μM: pre-treated with GQ-5 (0.5 μM) for 1 h, followed with TGF-β1 (10 ng/ml) for 36 h
# (§6) (6) TGF-β1+GQ-5 2.5 μM: pre-treated with GQ-5 (2.5 μM) for 1 h, followed with TGF-β1 (10 ng/ml) for 36 h
# (§7) GQ-5 was dissolved in DMSO. Cells were treated as described. Cells were collected for mRNA extraction. Real-rime PCR was performed to examine the mRNA expression of α-SMA, collagen I and fibronectin.
# Smad2 = assay: Immunofluorescence staining of Smad2 nuclear translocation; type: cell-based, rat; conditions: NRK52E cells, GQ-5 2.5 μM pre-treated 1 h, TGF-β1 10 ng/ml 2 h
# Experimental: NRK52E cells were cultured in DMEM-Ham's medium supplemented with 10% fetal bovine serum. The cells reached at approximately 50% confluence were used for in vitro experiments. Cells were serum-starved for 12 h, and randomized into 3 groups: (1) Controls; (2) TGF-β1 only; (3) TGF-β1+GQ-5.
# (2) TGF-β1 only: pre-treated with DMSO for 1 h, followed with TGF-β1 (10 ng/ml) for 2 h
# (3) TGF-β1+GQ-5: pre-treated with GQ-5 (2.5 μM) for 1 h, followed with TGF-β1 (10 ng/ml) for 2 h
# GQ-5 was dissolved in DMSO. Cells were treated as described Immunofluorescence staining was performed to examine the nuclear translocation of Smad2, Smad3, and Smad4.
# [1] = target: interaction of Smad3 with TβRI (Rattus norvegicus, UniProt P84025); assay: Immunoprecipitation of Smad3 with TβRI in vitro; type: cell-based; conditions: NRK52E cells, GQ-5 2.5 nM pre-treated 1 h, TGF-β1 10 ng/ml 1 h
# Sequence of interaction of Smad3 with TβRI (P84025 whole entry): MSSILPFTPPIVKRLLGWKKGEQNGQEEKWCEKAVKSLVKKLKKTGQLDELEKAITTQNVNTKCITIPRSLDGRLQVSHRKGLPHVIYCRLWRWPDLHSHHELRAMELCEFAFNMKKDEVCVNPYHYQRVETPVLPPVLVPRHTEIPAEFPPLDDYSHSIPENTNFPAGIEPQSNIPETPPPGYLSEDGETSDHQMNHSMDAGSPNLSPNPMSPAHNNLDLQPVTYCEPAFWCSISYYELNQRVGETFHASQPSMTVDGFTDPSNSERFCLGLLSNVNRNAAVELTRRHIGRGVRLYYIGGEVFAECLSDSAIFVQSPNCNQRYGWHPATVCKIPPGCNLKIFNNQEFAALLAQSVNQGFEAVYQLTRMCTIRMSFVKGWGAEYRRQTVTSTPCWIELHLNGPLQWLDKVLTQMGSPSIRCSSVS
# Experimental: (§8) NRK52E cells were cultured in DMEM-Ham's medium supplemented with 10% fetal bovine serum. The cells reached at approximately 50% confluence were used for in vitro experiments. Cells were serum-starved for 12 h, and randomized into 4 groups: (1) Controls; (2) GQ-5 only; (3) TGF-β1 only; (4) TGF-β1+GQ-5
# (§9) (2) GQ-5 only: pre-treated with GQ-5 (2.5 nM) for 1 h, followed with DMEM for 1 h
# (§10) (3) TGF-β1 only: pre-treated with DMSO for 1 h, followed with TGF-β1 (10 ng/ml) for 1 h
# (§11) (4) TGF-β1+GQ-5: pre-treated with GQ-5 (2.5 nM) for 1 h, followed with TGF-β1 (10 ng/ml) for 1 h
# (§12) GQ-5 was dissolved in DMSO. Cells were treated as described. Cell lysates were collected for immunoprecipitation to examine the interaction among TGFβ type I receptor (TβRI), TβRII, Smad3 and Smad2.
# Smad3 phosphorylation = assay: Western blot of TGF-β1-induced Smad3 phosphorylation in vitro; type: cell-based, rat
# Experimental: NRK52E and NRK49F cells were cultured in DMEM-Ham's medium supplemented with 10% fetal bovine serum. The cells reached at approximately 50% confluence were used for in vitro experiments. Cells were serum-starved for 12 h, and randomized into 6 groups: (1) Controls; (2) GQ-5 only; (3) TGF-β1 only; (4) TGF-β1+GQ-5 0.1 μM; (5) TGF-β1+GQ-5 0.5 μM; (6) TGF-β1+GQ-5 2.5 μM.
# (2) GQ-5 only: pre-treated with GQ-5 (2.5 μM) for 1 h, followed with DMEM for 1 h
# (3) TGF-β1 only: pre-treated with DMSO (0.1%) for 1 h, followed with TGF-β1 (10 ng/ml) for 1 h
# (4) TGF-β1+GQ-5 0.1 μM: pre-treated with GQ-5 (0.1 μM) for 1 h, followed with TGF-β1 (10 ng/ml) for 1 h
# (5) TGF-β1+GQ-5 0.5 μM: pre-treated with GQ-5 (0.5 μM) for 1 h, followed with TGF-β1 (10 ng/ml) for 1 h
# (6) TGF-β1+GQ-5 2.5 μM: pre-treated with GQ-5 (2.5 μM) for 1 h, followed with TGF-β1 (10 ng/ml) for 1 h.
# GQ-5 was dissolved in DMSO. Cells were treated as described. Cell lysates were immunoblotted with antibodies against phospho-Smad3, Smad3, phospho-Smad2, Smad2.
# NRK52E cells were cultured in DMEM-Ham's medium supplemented with 10% fetal bovine serum. The cells reached at approximately 50% confluence were used for in vitro experiments. Cells were serum-starved for 12 h, and randomized into 8 groups: (1) Controls; (2) GQ-5 only; (3) TGF-β1 0.5 h; (4) TGF-β1 0.5 h+GQ-5; (5) TGF-β1 1.0 h; (6) TGF-β1 1.0 h+GQ-5; (7) TGF-β1 3.0 h; (8) TGF-β1 3.0 h+GQ-5;
# (4) TGF-β1 0.5 h+GQ-5: pre-treated with GQ-5 (2.5 μM) for 1 h, followed with TGF-β1 (10 ng/ml) for 0.5 h
# (6) TGF-β1 1.0 h+GQ-5: pre-treated with GQ-5 (2.5 μM) for 1 h, followed with TGF-β1 (10 ng/ml) for 1.0 h
# (8) TGF-β1 3.0 h+GQ-5: pre-treated with GQ-5 (2.5 μM) for 1 h, followed with TGF-β1 (10 ng/ml) for 3.0 h
# GQ-5 was dissolved in DMSO. Cells were treated as described. Cell lysates were immunoblotted with antibodies against phospho-Smad3, Smad3, phospho-Smad2, and Smad2.
# collagen I = assay: Real-time PCR of TGF-β1-induced collagen I mRNA in vitro; type: cell-based, rat; conditions: NRK 52E and NRK 49F cells, GQ-5 0.1-2.5 μM pre-treated 1 h, TGF-β1 10 ng/ml 36 h
# Experimental: as §1, §2, §3, §4, §5, §6, §7
# [2] = target: interaction of Smad2 with TβRI (Rattus norvegicus, UniProt O70436); assay: Immunoprecipitation of Smad2 with TβRI in vitro; type: cell-based; design: endogenous in cells; host or cells: NRK52E; conditions: NRK52E cells, GQ-5 2.5 nM pre-treated 1 h, TGF-β1 10 ng/ml 1 h
# Sequence of interaction of Smad2 with TβRI (O70436 whole entry): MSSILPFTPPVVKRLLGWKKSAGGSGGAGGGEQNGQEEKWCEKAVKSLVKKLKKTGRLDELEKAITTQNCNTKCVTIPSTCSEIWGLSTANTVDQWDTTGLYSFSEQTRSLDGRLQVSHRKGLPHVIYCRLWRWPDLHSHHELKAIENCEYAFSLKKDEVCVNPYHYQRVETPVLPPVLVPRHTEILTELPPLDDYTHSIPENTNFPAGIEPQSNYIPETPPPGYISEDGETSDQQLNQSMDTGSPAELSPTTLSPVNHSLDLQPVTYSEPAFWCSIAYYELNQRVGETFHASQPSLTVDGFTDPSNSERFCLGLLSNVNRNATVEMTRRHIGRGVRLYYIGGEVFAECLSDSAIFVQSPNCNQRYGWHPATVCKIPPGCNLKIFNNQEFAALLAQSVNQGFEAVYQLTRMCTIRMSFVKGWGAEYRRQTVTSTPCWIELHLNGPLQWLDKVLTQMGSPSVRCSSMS
# Experimental: as §8, §9, §10, §11, §12
structure (smiles),measurement,setting,value
"CCCCCC/C=C\CCCCCCCc1cccc(O)c1O [GQ-5, 3-[(Z)-pentadec-8-enyl]catechol]",TGF-β1-induced mRNA expression of fibronectin,fibronectin,significantly inhibited
same,nuclear translocation of Smad2,Smad2,also reduced
same,interaction of Smad3 with TβRI,[1],significantly blocked
same,inhibitory effect in the absence of TGF-β1 stimulation,"Smad3 phosphorylation; NRK52E and NRK49F cells, GQ-5 2.5 μM only",almost undetectable
same,"TGF-β1-induced Smad3 phosphorylation, dose dependence","Smad3 phosphorylation; NRK52E and NRK49F cells, GQ-5 0.1, 0.5, 2.5 μM pre-treated 1 h, TGF-β1 10 ng/ml 1 h",attenuated TGF-β1-induced Smad3 phosphorylation in a dose-dependent manner
same,"TGF-β1-induced Smad3 phosphorylation, time dependence","Smad3 phosphorylation; NRK52E cells, GQ-5 2.5 μM pre-treated 1 h, TGF-β1 10 ng/ml 0.5, 1.0, 3.0 h",attenuated TGF-β1-induced Smad3 phosphorylation in a time-dependent manner
same,TGF-β1-induced mRNA expression of collagen I,collagen I,significantly inhibited
same,interaction of Smad2 with TβRI,[2],did not affect
